# Source: article PMC9687610, “Adenosine-Mimicking Derivatives of 3-Aminopyrazine-2-Carboxamide: Towards Inhibitors of Prolyl-tRNA Synthetase with Antimycobacterial Activity” (Biomolecules, 2022)
# pIC50: −log10 of the molar value. Like-named read-outs stand apart in the source and are kept apart here.
# Tests used:
# [1] = system: Mycobacterium tuberculosis H37Ra ITM-M006710 (ATCC 9431); assay: Microplate Alamar Blue Assay (MABA), Mtb H37Ra; assay type: cell-based; settings: Middlebrook 7H9 broth pH 6.6, resazurin after 120 h; for MIC: Mycobacterium tuberculosis, 120 h, pH 6.6, MABA, read-out: Mtb H37Ra MIC
# [2] = system: Mycobacterium smegmatis DSM 43465 (ATCC 607); assay: Microplate Alamar Blue Assay (MABA), M. smegmatis; assay type: cell-based; settings: for MIC: Mycolicibacterium smegmatis, read-out: M. smegmatis MIC
# [3] = system: M. aurum DSM 43999 (ATCC 23366); assay: Microplate Alamar Blue Assay (MABA), M. aurum; assay type: cell-based; settings: Mycolicibacterium aurum; MABA, resazurin after 72 h; read-out: M. aurum MIC
# [4] = system: Mycobacterium tuberculosis H37Rv CNCTC My 331/88 (ATCC 27294); assay: MABA microdilution, Mtb H37Rv; assay type: cell-based
# [5] = system: Enterococcus faecalis CCM 4224 (ATCC 29212); assay: Antibacterial microdilution broth (EUCAST), EF; assay type: cell-based; settings: Enterococcus faecalis
# [6] = system: Staphylococcus aureus subsp. aureus CCM 4223 (ATCC 29213); assay: Antibacterial microdilution broth (EUCAST), SA; assay type: cell-based; settings: Staphylococcus aureus; read after 24 h; read-out: SA MIC
# [7] = system: Staphylococcus aureus subsp. aureus methicillin-resistant (MRSA) CCM 4750 (ATCC 43300); assay: Antibacterial microdilution broth (EUCAST), MRSA; assay type: cell-based; settings: Staphylococcus aureus; read after 24 h; read-out: MRSA MIC
# [8] = system: Staphylococcus epidermidis CCM 4418 (ATCC 12228); assay: Antibacterial microdilution broth (EUCAST), SE; assay type: cell-based; settings: read after 24 h, read-out: SE MIC
# [9] = system: Escherichia coli CCM 3954 (ATCC 25922); assay: Antibacterial microdilution broth (EUCAST), EC; assay type: cell-based; settings: Escherichia coli; read after 24 h; read-out: EC MIC
# [10] = system: Acinetobacter baumannii DSM 30007 (ATCC 19606); assay: Antibacterial microdilution broth (EUCAST), ACI; assay type: cell-based; settings: Acinetobacter baumannii; read after 24 h; read-out: ACI MIC
# [11] = system: Pseudomonas aeruginosa CCM 3955 (ATCC 27853); assay: Antibacterial microdilution broth (EUCAST), PA; assay type: cell-based; settings: Pseudomonas aeruginosa; read after 24 h; read-out: PA MIC
# [12] = system: Candida albicans CCM 8320 (ATCC 24433); assay: Antifungal microdilution broth (EUCAST), CA; assay type: cell-based; settings: Candida albicans; read after 24 h; read-out: CA MIC
# [13] = system: Candida krusei CCM 8271 (ATCC 6258); assay: Antifungal microdilution broth (EUCAST), CK; assay type: cell-based; settings: Pichia kudriavzevii; read after 24 h; read-out: CK MIC
# [14] = system: Candida parapsilosis CCM 8260 (ATCC 22019); assay: Antifungal microdilution broth (EUCAST), CP; assay type: cell-based; settings: Lodderomyces parapsilosis; read after 24 h; read-out: CP MIC
# [15] = system: Candida tropicalis CCM 8264 (ATCC 750); assay: Antifungal microdilution broth (EUCAST), CT; assay type: cell-based; settings: Candida tropicalis; read after 24 h; read-out: CT MIC
# [16] = system: Aspergillus fumigatus ATCC 204305; assay: Antifungal microdilution broth (EUCAST), AF; assay type: cell-based; settings: Aspergillus fumigatus, ATCC204305; read after 24 h; read-out: AF MIC
# [17] = system: Aspergillus flavus CCM 8363; assay: Antifungal microdilution broth (EUCAST), AFla; assay type: cell-based; settings: Aspergillus flavus, CCM8363; read after 24 h; read-out: AFla MIC
# [18] = system: Lichtheimia corymbifera CCM 8077; assay: Antifungal microdilution broth (EUCAST), LC; assay type: cell-based; settings: Lichtheimia corymbifera, CCM8077; read after 24 h; read-out: LC MIC
# [19] = system: Trichophyton interdigitale CCM 8377 (ATCC 9533); assay: Antifungal microdilution broth (EUCAST), TI; assay type: cell-based; settings: Trichophyton interdigitale, 72 h, read-out: TI MIC
# [20] = system: HepG2 human hepatocellular carcinoma cells; assay: In vitro HepG2 cytotoxicity (CellTiter 96); settings: for pIC50: Homo sapiens, HepG2, 24 h, read-out: HepG2 IC50, 24 h incubation, * limit = highest evaluated concentration (precipitation in medium), ** over the 1000 µM limit
# [21] = system: Klebsiella pneumoniae CCM 4415 (ATCC 10031); assay: Antibacterial microdilution broth (EUCAST), KP; settings: read after 24 h
# Mtb laboratory ID IZAK = settings: Laboratory ID IZAK, cited from earlier work; for Susceptibility: CLSI breakpoints 2020; for Minimum inhibitory concentration: tested and interpreted according to CLSI breakpoints in 2020
# Mtb laboratory ID MATI = settings: Laboratory ID MATI, cited from earlier work; for Susceptibility: CLSI breakpoints 2021; for Minimum inhibitory concentration: tested and interpreted according to CLSI breakpoints in 2021
# [22] = Mycobacterium tuberculosis, read-out: Mtb H37Rv MIC
# [23] = virulent strain Mtb H37Rv and MDR isolates IZAK, MATI
# [24] = read after 24 h, read-out: EF MIC
# [25] = Mycobacterium tuberculosis; read-out: Mtb H37Rv MIC
SMILES,MIC [1],"MIC ([2]; MABA, resazurin after 48 h)",MIC [3],MIC [6],MIC [7],MIC [8],"MIC [5, 24]",MIC [9],MIC [10],MIC [11],MIC [12],MIC [13],MIC [14],MIC [15],MIC [16],MIC [17],MIC [18],MIC [19],pIC50 [20],KP MIC [21],further results
"O=C(O)c1cn(C2CC2)c2cc(N3CCNCC3)c(F)cc2c1=O [CIP, ciprofloxacin, reference compound]",0.25 µg/mL,0.063 µg/mL,0.016 µg/mL,,,,,,,,,,,,,,,,,,"MIC [4, 22]: 0.2 µg/mL; MIC ([5]; internal quality control, no visible growth, 24 h, read-out: MIC, visual detection): 1.02 µg/mL"
Cc1ccc(C(=O)Nc2nccnc2C(N)=O)cc1 [Compound 4],7.81 µg/mL,≥ 250 µg/mL,≥ 250 µg/mL,> 500 µM,> 500 µM,> 500 µM,> 500 µM,> 500 µM,> 500 µM,> 500 µM,> 500 µM,> 500 µM,> 500 µM,> 500 µM,> 500 µM,> 500 µM,> 500 µM,> 500 µM,< 4.00,> 500 µM,"MIC [4, 22]: 6.25 µg/mL; activity on Mtb H37Rv and both MDR strains (in words) [4, 23]: significant activity"
NC(=O)c1nccnc1NC(=O)c1ccc(F)cc1 [Compound 12],31.2 µg/mL,250 µg/mL,≥ 500 µg/mL,> 500 µM,> 500 µM,> 500 µM,> 500 µM,> 500 µM,> 500 µM,> 500 µM,> 500 µM,> 500 µM,> 500 µM,> 500 µM,> 500 µM,> 500 µM,> 500 µM,> 500 µM,< 3.60,> 500 µM,"MIC [4, 22]: 50 µg/mL; activity on Mtb H37Rv and both MDR strains (in words) [4, 23]: significant activity"
NC(=O)c1nccnc1NC(=O)c1ccc(Cl)cc1 [Compound 15],3.91 µg/mL,,≥ 250 µg/mL,> 500 µM,> 500 µM,> 500 µM,> 500 µM,> 500 µM,> 500 µM,> 500 µM,> 125 µM,> 125 µM,> 125 µM,> 125 µM,> 125 µM,> 125 µM,> 125 µM,> 125 µM,< 4.00,> 500 µM,"activity against M. smegmatis (in words) [2]: high activity; MIC ([2]; 48 h): 3.91 µg/mL; MIC [4, 22]: 6.25 µg/mL; activity on Mtb H37Rv and both MDR strains (in words) [4, 23]: significant activity"
NC(=O)c1nccnc1NC(=O)c1ccc(Br)cc1 [Compound 18],1.95 µg/mL,125 µg/mL,≥ 250 µg/mL,> 500 µM,> 500 µM,> 500 µM,> 500 µM,> 500 µM,> 500 µM,> 500 µM,> 125 µM,> 125 µM,> 125 µM,> 125 µM,> 125 µM,> 125 µM,> 125 µM,> 125 µM,< 4.60,> 500 µM,"MIC [4, 22]: 6.25 µg/mL; solubility in the testing medium (in words) ([20]; HepG2 cell culture medium): low solubility"
O=c1[nH]c(-c2ccc(Cl)cc2)nc2nccnc12 [Compound 42],≥ 500 µg/mL,≥ 500 µg/mL,≥ 500 µg/mL,> 125 µM,> 125 µM,> 125 µM,> 125 µM,> 125 µM,> 125 µM,> 125 µM,> 125 µM,> 125 µM,> 125 µM,> 125 µM,> 125 µM,> 125 µM,> 125 µM,> 125 µM,< 3.60,> 125 µM,melting point: 306.5 to 307.9 °C
O=c1[nH]c(-c2ccc(Br)cc2)nc2nccnc12 [Compound 43],31.2 µg/mL,≥ 500 µg/mL,≥ 500 µg/mL,> 125 µM,> 125 µM,> 125 µM,> 125 µM,> 125 µM,> 125 µM,> 125 µM,> 125 µM,> 125 µM,> 125 µM,> 125 µM,> 125 µM,> 125 µM,> 125 µM,> 125 µM,< 3.60,> 125 µM,melting point: 315.4 to 317.4 °C
"CC[C@@H](CO)NCCN[C@@H](CC)CO [EMB, ethambutol]",0.5 µg/mL,,,,,,,,,,,,,,,,,,,,"MIC [4, 25]: 0.39 µg/mL; Susceptibility (Mtb laboratory ID IZAK): sensitive; Minimum inhibitory concentration (Mtb laboratory ID IZAK): 0.5 µg/mL; Susceptibility (Mtb laboratory ID MATI): sensitive; Minimum inhibitory concentration (Mtb laboratory ID MATI): 0.5 µg/mL"
"NNC(=O)c1ccncc1 [INH, isoniazid]",0.25 µg/mL,15.6 µg/mL,3.91 µg/mL,,,,,,,,,,,,,,,,< 3.00,,"Mtb H37Ra MIC ([1]; MABA): 0.25 to 0.5 µg/mL; MIC [4, 25]: 0.2 µg/mL; Susceptibility (Mtb laboratory ID MATI): resistant"
"NC(=O)c1cnccn1 [PZA, pyrazinamide]",,,,,,,,,,,,,,,,,,,,,Susceptibility (Mtb laboratory ID IZAK): resistant; Minimum inhibitory concentration (Mtb laboratory ID IZAK): > 16 µg/mL; Susceptibility (Mtb laboratory ID MATI): resistant; Minimum inhibitory concentration (Mtb laboratory ID MATI): > 128 µg/mL
"CO[C@H]1/C=C/O[C@@]2(C)Oc3c(C)c(O)c4c(O)c(c(/C=N/N5CCN(C)CC5)c(O)c4c3C2=O)NC(=O)/C(C)=C\C=C\[C@H](C)[C@H](O)[C@@H](C)[C@@H](O)[C@@H](C)[C@H](OC(C)=O)[C@@H]1C [RIF, rifampicin]",0.003 µg/mL,12.5 µg/mL,0.39 µg/mL,,,,,,,,,,,,,,,,< 3.30,,Susceptibility (Mtb laboratory ID IZAK): resistant; Minimum inhibitory concentration (Mtb laboratory ID IZAK): > 8 µg/mL; Susceptibility (Mtb laboratory ID MATI): resistant; Minimum inhibitory concentration (Mtb laboratory ID MATI): > 8 µg/mL
"[H]/N=C(/N)N[C@H]1[C@H](O)[C@@H](O)[C@H](O[C@@H]2O[C@@H](C)[C@](O)(C=O)[C@H]2O[C@@H]2O[C@@H](CO)[C@H](O)[C@@H](O)[C@@H]2NC)[C@@H](N/C(N)=N\[H])[C@@H]1O [STM, streptomycin]",0.5 µg/mL,,,,,,,,,,,,,,,,,,,,Susceptibility (Mtb laboratory ID IZAK): resistant; Minimum inhibitory concentration (Mtb laboratory ID IZAK): 4 µg/mL; Susceptibility (Mtb laboratory ID MATI): resistant; Minimum inhibitory concentration (Mtb laboratory ID MATI): > 16 µg/mL
